Results taken from the NIST ThermoML archive (doi:10.1021/je060107n).
± gives the expanded uncertainty stated by the source.

Assay: mn = molality of the nth substance listed, in mol/kg
Settings: 101 kPa, Liquid; for mass density: Pycnometric method; for viscosity / speed of sound: 303.15 K; for viscosity: Capillary tube (Ostwald / Ubbelohde) method; for speed of sound: Linear variable-path acoustic interferometer

CC(=O)[O-].CC(=O)[O-].[Mg+2] [magnesium acetate] + O
Settings | mass density [kg/m3]
299.2 K, m1 = 2.622 | 1155.8 ± 0.7
299.3 K, m1 = 1.866 | 1117.5 ± 0.7
299.55 K, m1 = 5.732 | 1267.4 ± 0.9
299.6 K, m1 = 0.1671 | 1009.1 ± 0.6
299.65 K, m1 = 1.354 | 1088.4 ± 0.7
300.6 K, m1 = 1.608 | 1103.6 ± 0.7
300.85 K, m1 = 0.0414 | 999.3 ± 0.63
301 K, m1 = 2.411 | 1146.5 ± 0.8
301.05 K, m1 = 3.043 | 1173.8 ± 0.8
301.35 K, m1 = 1.327 | 1086.4 ± 0.7
301.5 K, m1 = 3.437 | 1194.2 ± 0.8
301.55 K, m1 = 2.134 | 1131.1 ± 0.7
301.7 K, m1 = 1.106 | 1073.7 ± 0.7
301.75 K, m1 = 5.732 | 1266 ± 0.9
302.05 K, m1 = 2.622 | 1154.6 ± 0.8
302.05 K, m1 = 3.819 | 1205.9 ± 0.8
302.25 K, m1 = 0.646 | 1043 ± 0.7
302.4 K, m1 = 1.866 | 1116.3 ± 0.7
302.4 K, m1 = 5.165 | 1249.6 ± 0.9
302.5 K, m1 = 0.0831 | 1002 ± 0.6
302.55 K, m1 = 0.8751 | 1057.4 ± 0.7
302.7 K, m1 = 1.354 | 1087.4 ± 0.7
302.75 K, m1 = 0.4247 | 1027.2 ± 0.7
302.95 K, m1 = 4.547 | 1229.9 ± 0.8
303.3 K, m1 = 0.1671 | 1008 ± 0.6
303.65 K, m1 = 1.608 | 1102.5 ± 0.7
303.75 K, m1 = 2.411 | 1145.4 ± 1.1
303.75 K, m1 = 3.043 | 1172.5 ± 0.8
303.75 K, m1 = 5.732 | 1264.8 ± 0.9
303.9 K, m1 = 3.437 | 1193.1 ± 0.7
304.4 K, m1 = 3.819 | 1204.7 ± 0.8
304.45 K, m1 = 0.0414 | 998.24 ± 0.63
304.55 K, m1 = 2.134 | 1129.8 ± 0.8
304.6 K, m1 = 5.165 | 1248.3 ± 0.9
304.7 K, m1 = 1.327 | 1085.2 ± 0.7
304.8 K, m1 = 2.622 | 1153.3 ± 0.8
304.95 K, m1 = 1.106 | 1072.5 ± 0.7
305.35 K, m1 = 4.547 | 1228.6 ± 0.8

Settings | speed of sound [m/s] | viscosity [mPa·s]
m1 = 0.0414 | 1513.4 ± 1.9 | 0.835 ± 0.011
m1 = 0.0831 | 1521.5 ± 1.9 | 0.8624 ± 0.011
m1 = 0.1671 | 1532.2 ± 1.9 | 0.9234 ± 0.012
m1 = 0.4247 | 1567.4 ± 1.9 | 1.141 ± 0.015
m1 = 0.646 | 1595.7 ± 1.9 | 1.383 ± 0.018
m1 = 0.8751 | 1625.4 ± 1.9 | 1.64 ± 0.022
m1 = 1.106 | 1651.6 ± 1.9 | 2.014 ± 0.027
m1 = 1.354 | 1676.1 ± 2 | 2.446 ± 0.033
m1 = 1.608 | 1703 ± 2 | 2.446 ± 0.033
m1 = 1.866 | 1728.9 ± 2 | 3.688 ± 0.051
m1 = 2.134 | 1755.5 ± 2 | 4.619 ± 0.064
m1 = 2.411 | 1781.3 ± 2 | 6.056 ± 0.085
m1 = 2.622 | 1795.2 ± 2 | 6.928 ± 0.098
m1 = 3.043 | 1824.8 ± 2.1 | 9.798 ± 0.14
m1 = 3.437 | 1855.5 ± 2.1 | 15.2 ± 0.23
m1 = 3.819 | 1870.5 ± 2.1 | –
m1 = 4.001 | – | 24.27 ± 0.38
m1 = 4.547 | 1899.1 ± 2.1 | –
m1 = 4.563 | – | 41.02 ± 0.68
m1 = 4.929 | – | 51.77 ± 0.92
m1 = 5.165 | 1919 ± 2.1 | –
m1 = 5.41 | – | 99.4 ± 1.6
m1 = 5.732 | 1926.8 ± 2.1 | 135.8 ± 3
